Test results as given in patent US20250296917A1, “SPIRO-CYCLIC AMINE DERIVATIVES AS S1P MODULATORS” (AbbVie Deutschland GmbH & Co. KG, priority 2020, published 2025).

Legend:
Format in all cases: cell-based
[1] = target: T1, human S1PR3 (Homo sapiens, UniProt Q99500); test: Intracellular Ca2+ release agonist assay (Calcium 5 FLIPR), CHO-K1 cells expressing human S1PR3; settings: agonism, recombinant CHO-K1 cells with aequorin and Gq/i5; read-out: hS1PR3 pEC50 (converted)
T1 construct: host or cells: CHO-K1
Method: (§1) Agonist potency and efficacy were assessed by measurement of intracellular […] release. Recombinant CHO-K1 cells (Euroscreen, Brussels, Belgium) expressing human S1PR5, S1PR1, S1PR3 or S1PR4 receptors, aequorin, and GTP binding protein Gq/i5 were cultured using a medium containing nutrient mixture F-12 Ham (Sigma-Aldrich) supplemented with 10% FBS, 100 µg/mL gentamicin and equilibrated at 5% C02. 15.000 cells in […] medium were seeded into Biocoat poly-D-Lysine coated 384 well plates (Becton Dickinson #35-6663) and grown to ˜95% confluency after 24 h. Culture medium was replaced by an assay buffer consisting of HBBS with Ca2+ and Mg2+ (Invitrogen #14025-050), 20 mmol/L Hepes (Sigma-Aldrich #H-3375), 2.5 mmol/L probenecid (Sigma-Aldrich #P-8761, and 0.1% BSA (Sigma-Aldrich #A-7030) pH 7.4. The Calcium 5 no-wash FLIPR assay kit (Molecular Devices #5000625) was performed as described in the kit instructions. Cells were incubated with Calcium 5 dye for 1 h at 37° C., 5% CO2 in the dark. After 45 min adaptation to RT assessment of agonist stimulation of intracellular Ca2+ release was performed by addition of test compounds at various concentrations obtained by serial dilution. Phospho-fingolimod was used as positive control and reference agonist (intrinsic activity 100%).

[2] = target: hS1PR2 (recombinant human S1P2 receptor) (Homo sapiens, UniProt O95136); test: hS1PR2 agonist aequorin luminescence assay (Euroscreen/Eurofins); settings: agonism, cells co-expressing apoaequorin, human Gα16 and S1P2 receptor; read-out: hS1PR2 pEC50 (converted)
Method: Efficacy testing for hS1PR2 was performed at Euroscreen, Eurofins, France. Cells co-expressing mitochondrial Apoaequorin, recombinant human Gα16 and S1P2 receptor (FAST-0198A) grown to mid-log phase in culture media without antibiotics were detached with PBS-EDTA, centrifuged and resuspended in assay buffer (DMEM/HAM's F12 with HEPES, without phenol red+0.1 fatty acid free BSA) at a concentration of 1×10^6 cells/ml. Cells were incubated at room temperature for at least 4 h with coelenterazine. The reference agonists S1P and […] were tested to evaluate the performance of the assay on each day of the test and determine the EC50. For agonist testing, cell suspension was mixed 1:1 with test or reference agonist in 384-well plate. The resulting emission of light was recorded using a Hamamatsu Functional Drug Screening System 6000 (FDSS) luminometer. On each day of experimentation, reference compounds were tested at several concentrations to obtain a dose-response curve and an estimated EC50 value. Reference values thus obtained for the test were compared to historical values obtained from the same receptor and used to validate the experimental session.

[3] = target: T2, human S1PR1 (Homo sapiens, UniProt P21453); test: Intracellular Ca2+ release agonist assay (Calcium 5 FLIPR), CHO-K1 cells expressing human S1PR1; settings: agonism, recombinant CHO-K1 cells with aequorin and Gq/i5; read-out: hS1PR1 pEC50 (converted)
T2 construct: host or cells: CHO-K1
Method: as §1

Measured: EC50

T1 sequence (Q99500 whole entry): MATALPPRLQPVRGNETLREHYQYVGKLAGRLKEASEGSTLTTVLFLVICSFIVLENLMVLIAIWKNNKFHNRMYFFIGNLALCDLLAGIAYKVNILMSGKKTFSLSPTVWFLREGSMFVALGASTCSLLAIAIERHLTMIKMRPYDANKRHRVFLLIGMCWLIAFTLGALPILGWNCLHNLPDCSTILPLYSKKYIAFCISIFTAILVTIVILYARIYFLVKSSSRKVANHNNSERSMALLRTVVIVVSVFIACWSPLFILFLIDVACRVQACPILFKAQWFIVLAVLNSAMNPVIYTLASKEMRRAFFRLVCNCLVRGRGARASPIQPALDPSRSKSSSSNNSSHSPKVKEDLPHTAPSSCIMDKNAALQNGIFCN
T2 sequence (P21453 whole entry): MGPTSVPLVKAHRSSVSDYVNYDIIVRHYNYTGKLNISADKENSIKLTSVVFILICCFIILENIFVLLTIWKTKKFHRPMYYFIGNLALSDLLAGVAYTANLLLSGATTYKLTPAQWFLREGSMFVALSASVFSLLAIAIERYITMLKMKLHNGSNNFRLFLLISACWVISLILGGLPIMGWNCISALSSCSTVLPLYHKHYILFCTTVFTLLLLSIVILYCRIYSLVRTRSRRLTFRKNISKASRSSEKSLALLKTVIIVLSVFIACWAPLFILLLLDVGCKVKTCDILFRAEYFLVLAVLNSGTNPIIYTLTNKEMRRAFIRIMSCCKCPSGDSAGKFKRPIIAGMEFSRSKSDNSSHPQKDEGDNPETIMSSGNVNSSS
hS1PR2 (recombinant human S1P2 receptor), sequence (O95136 whole entry): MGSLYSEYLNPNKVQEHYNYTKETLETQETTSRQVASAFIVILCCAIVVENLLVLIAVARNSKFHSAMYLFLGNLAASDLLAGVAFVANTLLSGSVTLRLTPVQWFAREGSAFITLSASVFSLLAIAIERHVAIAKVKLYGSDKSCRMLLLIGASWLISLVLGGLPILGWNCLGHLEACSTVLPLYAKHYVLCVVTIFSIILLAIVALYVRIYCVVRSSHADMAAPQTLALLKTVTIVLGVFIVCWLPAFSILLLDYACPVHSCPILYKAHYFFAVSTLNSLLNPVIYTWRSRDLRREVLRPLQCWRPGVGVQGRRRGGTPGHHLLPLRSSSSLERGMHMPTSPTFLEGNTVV

CCc1cccc(Cl)c1COc1ccc2c(c1)CC[C@@]21CN(CCC(=O)O)CCO1 [Compound 1a, (S)-3-(5-((2-chloro-6-ethylbenzyl)oxy)-2,3-dihydrospiro[indene-1,2′-morpholin]-4′-yl)propanoic acid]
< 5.01 µM: all assays above
